From patent EP0325279A1, “Dehydrocholecalciferol derivatives” (F. HOFFMANN-LA ROCHE AG, priority 1988, dated 1989)
Values joined by “and” are separate entries in the source; they are usually repeats but may differ in a detail not shown here. Equal values may be shown once.

How the values were obtained:
Assay type in all cases: cell-based
[1] = test system: menschlicher promyelocytischer Tumorzellen HL-60; assay: Differentiation-inducing (DI) effect on HL-60 cells; settings: for EC50: Homo sapiens, concentration that causes 50% differentiation of the cells, read-out: ED50 (the source's name)
Excerpt: (§1) Zum Nachweis der Aktivität der Verbindungen der Formel I als Mittel zur Behandlung von neoplastischen Krankheiten wurden die antiproliferativen (AP) und die Differenzierung induzierenden Effekte (DI) der Verbindungen A bis F sowie die Anzahl menschlicher promyelocytischer Tumorzellen HL-60 ermittelt. In Tabelle 6 ist der AP Effekt als prozentuale Reduktion der Anzahl Zellen und als Konzentration ID₅₀, die die Zellenanzahl um 50% reduziert, angegeben. Der DI Effekt ist angegeben als Prozentsatz der differenzierten Zellen und als Konzentration ED₅₀ der Verbindungen, die eine 50%ige Differenzierung der Zellen bewirkt.

[2] = test system: Plattenepithel-Karzinomzellenlinien (SCC-15); assay: Number of squamous carcinoma cell line cells formed in presence of compound
Excerpt: (§2) Die Aktivität der Verbindungen der Formel I als Mittel für die Behandlung von hyperproliferativen Hautkrankheiten kann auch durch Ermittlung der Anzahl von menschlichen Keratinocyten, von verhornten Plattenepithelzellen und von Plattenepithel-Karzinomzellenlinien (SCC-115), die sich in Gegenwart der besagten Verbindungen bilden.
(§3) Die Resultate sind in den Tabellen 4 und 5 angegeben: Tabelle 4

[3] = test system: gezüchteten menschlichen Keratinocyten; assay: Morphological differentiation of cultured human keratinocytes (cell counts by cell type)
[4] = test system: menschlichen Keratinocyten; assay: Number of human keratinocytes and cornified squamous cells formed in presence of compound
Excerpt: as §2, §3

[5] = test system: menschlicher promyelocytischer Tumorzellen HL-60; assay: Antiproliferative (AP) effect on HL-60 cells; settings: for IC50: Homo sapiens, concentration that reduces the cell number by 50%, read-out: ID50 (the source's name)
Excerpt: as §1

[6] = Konzentration 0.01 (head prints x10 M)
[7] = Konzentration 0.1 (head prints x10 M)
[8] = Konzentration 1 (head prints x10 M)
[9] = Konzentration 10 (head prints x10 M)
[10] = Konzentration 100 (head prints x10 M)

C=C1/C(=C\C=C2/CCC[C@]3(C)C([C@H](C)CC#CC(C)(C)O)=CC[C@@H]23)C[C@@H](O)C[C@@H]1O [Verbindung E]
EC50 [1]: 1 nM | Differenzierte Zellen (%) [1, 6]: 9% | Differenzierte Zellen (%) [1, 7]: 50% | Differenzierte Zellen (%) [1, 8]: 96% | Differenzierte Zellen (%) [1, 9]: 98% | Anzahl Zellenlinien (SCC-15) (x10⁵) ([2]; Dosis 10⁻¹² M): 6.98±1.68 x10⁵ | Anzahl Zellenlinien (SCC-15) (x10⁵) ([2]; Dosis 10⁻¹⁰ M): 5.89±1.58 x10⁵ | Anzahl Zellenlinien (SCC-15) (x10⁵) ([2]; Dosis 10⁻⁶ M): 0.40±0.98 x10⁵ and 0.49±0.13 x10⁵ | Anzahl Zellenlinien (SCC-15) (x10⁵) ([2]; Dosis 10⁻⁸ M): 5.76±1.53 x10⁵ | Anzahl Zellen (x10⁴): Basalzellen ([3]; Dosis 10⁻¹⁰ M): 63±2 x10⁴ | Anzahl Zellen (x10⁴): Gesamtanzahl ([3]; Dosis 10⁻¹⁰ M): 86±4 x10⁴ | Anzahl Zellen (x10⁴): Plattenepithelzellen ([3]; Dosis 10⁻¹⁰ M): 23±2 x10⁴ | Anzahl Zellen (x10⁴): verhornte Plattenepithelzellen ([3]; Dosis 10⁻¹⁰ M): 114±5 x10⁴ | Anzahl Zellen (x10⁴): Basalzellen ([3]; Dosis 10⁻⁶ M): 41±1 x10⁴ | Anzahl Zellen (x10⁴): Gesamtanzahl ([3]; Dosis 10⁻⁶ M): 78±3 x10⁴ | Anzahl Zellen (x10⁴): Plattenepithelzellen ([3]; Dosis 10⁻⁶ M): 27±2 x10⁴ | Anzahl Zellen (x10⁴): verhornte Plattenepithelzellen ([3]; Dosis 10⁻⁶ M): 147±4 x10⁴ | Anzahl Zellen (x10⁴): Basalzellen ([3]; Dosis 10⁻⁸ M): 53±2 x10⁴ | Anzahl Zellen (x10⁴): Gesamtanzahl ([3]; Dosis 10⁻⁸ M): 82±3 x10⁴ | Anzahl Zellen (x10⁴): Plattenepithelzellen ([3]; Dosis 10⁻⁸ M): 29±1 x10⁴ | Anzahl Zellen (x10⁴): verhornte Plattenepithelzellen ([3]; Dosis 10⁻⁸ M): 141±5 x10⁴ | Anzahl Keratinocten (x10⁴) ([4]; Dosis 10⁻¹² M): 187.36±15.33 x10⁴ | Anzahl verhornte Plattenepithelzellen (x10²) ([4]; Dosis 10⁻¹² M): 1136.63± 383.66 x10² | Anzahl Keratinocten (x10⁴) ([4]; Dosis 10⁻¹⁰ M): 175.34±10.19 x10⁴ | Anzahl verhornte Plattenepithelzellen (x10²) ([4]; Dosis 10⁻¹⁰ M): 1444.87± 312.47 x10² | Anzahl Keratinocten (x10⁴) ([4]; Dosis 10⁻⁶ M): 41.95± 7.53 x10⁴ | Anzahl verhornte Plattenepithelzellen (x10²) ([4]; Dosis 10⁻⁶ M): 1916.83± 887.66 x10² | Anzahl Keratinocten (x10⁴) ([4]; Dosis 10⁻⁸ M): 145.79±15.66 x10⁴ | Anzahl verhornte Plattenepithelzellen (x10²) ([4]; Dosis 10⁻⁸ M): 2113.62±1049.33 x10² | IC50 [5]: 0.7 nM | % Reduktion der Anzahl Zellen [5, 6]: 6% | % Reduktion der Anzahl Zellen [5, 7]: 59% | % Reduktion der Anzahl Zellen [5, 8]: 80% | % Reduktion der Anzahl Zellen [5, 9]: 81%

C=C1/C(=C\C=C2/CCC[C@]3(C)C([C@H](C)CCCC(C)(C)O)=CC[C@@H]23)C[C@@H](O)C[C@@H]1O [Verbindung A, 1,25-Dihydroxy-16-dehydrocholecalciferol]
EC50 [1]: 2 nM | Differenzierte Zellen (%) [1, 6]: 3% | Differenzierte Zellen (%) [1, 7]: 16% | Differenzierte Zellen (%) [1, 8]: 92% | Differenzierte Zellen (%) [1, 9]: 97% | Differenzierte Zellen (%) [1, 10]: 98% | Anzahl Zellen (x10⁴): Basalzellen ([3]; Dosis 10⁻¹⁰ M): 115±7 x10⁴ | Anzahl Zellen (x10⁴): Gesamtanzahl ([3]; Dosis 10⁻¹⁰ M): 132±8 x10⁴ | Anzahl Zellen (x10⁴): Plattenepithelzellen ([3]; Dosis 10⁻¹⁰ M): 17±1 x10⁴ | Anzahl Zellen (x10⁴): verhornte Plattenepithelzellen ([3]; Dosis 10⁻¹⁰ M): 27±2 x10⁴ | Anzahl Zellen (x10⁴): Basalzellen ([3]; Dosis 10⁻⁶ M): 71±5 x10⁴ | Anzahl Zellen (x10⁴): Gesamtanzahl ([3]; Dosis 10⁻⁶ M): 101±7 x10⁴ | Anzahl Zellen (x10⁴): Plattenepithelzellen ([3]; Dosis 10⁻⁶ M): 30±2 x10⁴ | Anzahl Zellen (x10⁴): verhornte Plattenepithelzellen ([3]; Dosis 10⁻⁶ M): 39±2 x10⁴ | Anzahl Zellen (x10⁴): Basalzellen ([3]; Dosis 10⁻⁸ M): 106±8 x10⁴ | Anzahl Zellen (x10⁴): Gesamtanzahl ([3]; Dosis 10⁻⁸ M): 128±10 x10⁴ | Anzahl Zellen (x10⁴): Plattenepithelzellen ([3]; Dosis 10⁻⁸ M): 22±2 x10⁴ | Anzahl Zellen (x10⁴): verhornte Plattenepithelzellen ([3]; Dosis 10⁻⁸ M): 33±2 x10⁴ | Anzahl Keratinocten (x10⁴) ([4]; Dosis 10⁻¹² M): 114.91±10.95 x10⁴ | Anzahl verhornte Plattenepithelzellen (x10²) ([4]; Dosis 10⁻¹² M): 1662.2± 420.1 x10² | Anzahl Keratinocten (x10⁴) ([4]; Dosis 10⁻¹⁰ M): 130.37±24.32 x10⁴ | Anzahl verhornte Plattenepithelzellen (x10²) ([4]; Dosis 10⁻¹⁰ M): 3973.8± 126.99 x10² | Anzahl Keratinocten (x10⁴) ([4]; Dosis 10⁻⁶ M): 109.22±15.87 x10⁴ | Anzahl verhornte Plattenepithelzellen (x10²) ([4]; Dosis 10⁻⁶ M): 8323.5± 157.6 x10² | Anzahl Keratinocten (x10⁴) ([4]; Dosis 10⁻⁸ M): 120.67±16.87 x10⁴ | Anzahl verhornte Plattenepithelzellen (x10²) ([4]; Dosis 10⁻⁸ M): 7235.2± 55.5 x10² | IC50 [5]: 2 nM | % Reduktion der Anzahl Zellen [5, 6]: 10% | % Reduktion der Anzahl Zellen [5, 7]: 33% | % Reduktion der Anzahl Zellen [5, 8]: 84% | % Reduktion der Anzahl Zellen [5, 9]: 85% | % Reduktion der Anzahl Zellen [5, 10]: 85%
